Converted amounts (≈) assume the structure as drawn.
These compounds were tested on RFR (resistant strains selected from RF against Example 1) (assay: CEM-T4 cell infection assay, reverse transcriptase readout, resistant isolate RFR). Details: Human immunodeficiency virus 1, CEM-T4, 168 h, Table 4, CEM-T4 cells, 7 days, read-out: Virus Isolate (EC50 ng/mL) RFR.
Format: cell-based, HIV-1
Excerpt: RF represents the HIV-1 strain HIV-LRF and RFR represents a mixture of resistant strains obtained by selection of RF against the compound of Example 1. RFR comprises a mixture of viral strains having protease genotypes of G48V (14/40 clones); G48V, V82A (18/40 clones); G48V, L90S (2/40 clones); G48V, 154T, V82A (1/40 clones); G48M (1/40 clones); G48V, Q61H (1/40 clones); V13I, G48V (1/40 clones); G48V, F53L, V82A (1/40 clones); and G48V, V82A, C95Y (1/40 clones). RFR2 represents a mixture of resistant strains obtained by cloning RFR by three rounds of growth at limiting dilution. RFR2 comprises a mixture of viral strains having protease genotypes of G48V, V82A (13/15 clones); G17E, G48V, V82A (1/15 clones); and G48V, V82A, N37D, N88D (1/15 clones). RFRR represents a mixture of resistant strains obtained by selection of RF against the compounds of Examples 1 and 2 and then cloning by three rounds of growth at limiting dilution. RFRR comprises a mixture of viral strains having protease genotypes of G48V, 154T, L63P, V82A (7/9 clones); G48V, 154T, L63P, V82A, N88S (1/9 clones); and G48V, 154T, L63P, G73M, V82A (1/9 clones). SF162 represents the HIV-1 strain SF-162 and SF162R represents a mixture of resistant strains obtained by selection of SF162 against the compound of Example 1. SF162R comprises a mixture of viral strains having protease genotypes of M461, F53L, L63P, A71V, N88D (2/3 clones); and M46I, F53L, L63P, A71V, N88D, Q92R (1/3 clones). 89-959 represents the HIV-1 strain 89-959 and 89-959R represents a mixture of resistant strains obtained by selection of 89-959 against the compound of Example 2. 89-959R comprises a mixture of viral strains having protease genotypes of N88S (4/5 clones); and D25N, T26A, D30N, D37N, R41K, G73D, R87K, N88S (1/4 clones). NL4 represents the HIV-1 strain HIV-1NL4-3. NL4(G48V) represents a strain having a synthetically generated site-directed mutation in the protease from glycine to valine at amino acid position number 48. NL4(I84V) represents a strain having a synthetically generated site-directed mutation in the protease from isoleucine to valine at amino acid position number 84. NL4(R8Q,M46I) represents a strain having synthetically generated site-directed mutations in the protease from arginine to glutamine at amino acid position number 8 and methionine to isoleucine at amino acid position number 46. NL4(P22-538) represents a mixture of resistant strains obtained by selection of HIV-1NL4-3 against the compound of Example 10 after 22 passages comprising protease genotypes M46I, L63P, A71V, V82F, I84V (4/10); M46I, L63P, V82F, I84V (3/10); and M46I, A71V, V82F, I84V (3/10). NL4(P37-538) represents resistant strains obtained by selection of HIV-1NL4-3 against the compound of Example 10 after 37 passages comprising protease genotype M46I, L63P, A71V, 184A. NL4(538/524) represents resistant strains obtained by selection of NL4(P22-538) against the compound of Example 5 after 24 passages comprising protease genotype M46I, L63P, A71V, 184A. NL4(538/P7-AG) represents a mixture of resistant strains obtained by selection of NL4(P22-538) against the compound of Example 12 after 7 passages comprising protease genotypes M46I, L63P, A71V, 184A; and V321, V82I. NL4(538/P24-AG) represents resistant strains obtained by selection of NL4(P22-538) against the compound of Example 12 after 24 passages comprising protease genotype M46I, L63P, A71V, 184A. NLA(P19-003) represents resistant strains obtained by selection of HIV-1^NL4-3 against the compound of Example 9 after 19 passages comprising protease genotype R8K, M46I. NL4(P34-003) represents resistant strains obtained by selection of HIV-1^NL4-3 against the compound of Example 9 after 34 passages comprising protease genotype R8K, M46I, L63P, A71V, L90M.
The viral isolate resistance results summarized in Tables 4-6 were generated according to the following assay procedure or minor modifications thereof. Assays are performed in 96-well tissue culture plates. […]

Structure (SMILES)	EC50
CNCC(=O)N[C@H](C(=O)N[C@@H](Cc1ccccc1)[C@H](O)CN(CCC(C)C)C(=O)NC(C)(C)C)C(C)(C)C [Example 2, (2R,3S)-3-(N-methylaminoacetyl-L-tert-butylglycinyl)amino-1-(N-isoamyl-N-(tert-butylcarbamoyl))amino-4-phenyl-2-butanol]	8 ng/mL (≈ 0.015 µM)
CC(C)(C)NC(=O)[C@@H]1CN(Cc2cccnc2)CCN1C[C@@H](O)C[C@@H](Cc1ccccc1)C(=O)N[C@H]1c2ccccc2C[C@H]1O [Example 5, N-(2(R)-Hydroxy-1(S)-indanyl)-2(R)-phenylmethyl-4(S)-hydroxy-5-(1-(4-(3-pyridylmethyl)-2(S)-N′-(t-butylcarboxamido)-piperazinyl))-pentaneamide]	7 ng/mL (≈ 0.0114 µM)
CC(C)(C)NC(=O)[C@@H]1CC2CCCC[C@@H]2CN1C[C@@H](O)[C@H](Cc1ccccc1)NC(=O)[C@H](CC(N)=O)NC(=O)c1ccc2ccccc2n1 (stereo in doubt) [Example 6, N-tert-Butyl decahydro-2-[2(R)-hydroxy-4-phenyl-3(S)-[[N-(2-quinolylcarbonyl)-L-asparaginyl]amino]butyl]-(4aR,8aS)-isoquinoline-3(S)-carboxamide]	15 ng/mL (≈ 0.0224 µM)
CC(C)CN(C[C@@H](O)[C@H](Cc1ccccc1)NC(=O)[C@H](CC(N)=O)NC(=O)c1ccc2ccccc2n1)C(=O)NC(C)(C)C (relative stereo) [Example 1, [1S-[1R*(R*),2S*]]-N^1-[3-[[[(1,1-dimethylethyl)amino]carbonyl])2-methylpropyl)amino]-2-hydroxy-1-(phenylmethyl)propyl]-2-[(2-quinolinylcarbonyl)amino]-butanediamide]	223 ng/mL (≈ 0.369 µM)

Same assay, conditions: Human immunodeficiency virus 1, CEM-T4, 168 h, Table 5, CEM-T4 cells, 7 days, read-out: Virus Isolate (EC50 ng/mL) RFR

Structure (SMILES)	EC50
CC(C)CCN(C[C@@H](O)[C@H](Cc1ccccc1)NC(=O)[C@H](CC(N)=O)NC(=O)c1ccc2ccccc2n1)C(=O)NC(C)(C)C (relative stereo) [Example 7, [1S-[1R*(R*),2S*]]-N^1-[3-[[[(1,1-dimethylethyl)amino]carbonyl](3-methylbutyl)amino]-2-hydroxy-1-(phenylmethyl)propyl]-2-[(2-quinolinylcarbonyl)amino]-butanediamide]	78 ng/mL (≈ 0.126 µM)
CC(C)CN(C[C@@H](O)[C@H](Cc1ccccc1)NC(=O)[C@H](CC(N)=O)NC(=O)c1ccc2ccccc2n1)C(=O)NC(C)(C)C (relative stereo) [Example 1, [1S-[1R*(R*),2S*]]-N^1-[3-[[[(1,1-dimethylethyl)amino]carbonyl])2-methylpropyl)amino]-2-hydroxy-1-(phenylmethyl)propyl]-2-[(2-quinolinylcarbonyl)amino]-butanediamide]	394 ng/mL (≈ 0.652 µM)
CC(C)CN(C[C@@H](O)[C@H](Cc1ccccc1)NC(=O)[C@H](CC(N)=O)NC(=O)c1ccc2ccccc2n1)S(=O)(=O)NC(C)(C)C [Example 8, N-[3-[N^2-[N^1-(1,1-dimethylethyl)aminosulfonyl]-N^2-(2-methylpropyl)amino]-2R-hydroxy-1S-(phenylmethyl)propyl]-2S-[(2-quinolinylcarbonyl)amino]butanediamide]	1 ng/mL (≈ 0.00156 µM)
